This note sets out measurements from patent US6294674A, “Dibenzofuran sulfonamide matrix metalloproteinase inhibitors” (priority 1999, dated 2001).

One assay addresses T1, MMP07 (Homo sapiens, UniProt P09237).
T1 construct: made in house; host or cells: Escherichia coli
T1 sequence (P09237 95-267): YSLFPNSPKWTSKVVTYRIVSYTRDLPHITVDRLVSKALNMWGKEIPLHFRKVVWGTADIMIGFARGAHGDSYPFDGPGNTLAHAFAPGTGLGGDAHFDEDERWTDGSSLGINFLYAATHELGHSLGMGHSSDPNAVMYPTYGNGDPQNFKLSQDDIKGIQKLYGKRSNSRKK
The assay can be described thus: Thiopeptolide assay, MMP07. In kind it is biochemical.

Assay [1] has as its target gelatinase A catalytic domain (MMP02). The assay can be described thus: Thiopeptolide assay, gelatinase A catalytic domain (GCD, MMP02). The class given is biochemical.
The target of another assay is T2, MMP01 (Homo sapiens, UniProt P03956).
T2 construct: purchased Washington University School of Medicine, St. Louis, Mo
T2 sequence (P03956 100-469): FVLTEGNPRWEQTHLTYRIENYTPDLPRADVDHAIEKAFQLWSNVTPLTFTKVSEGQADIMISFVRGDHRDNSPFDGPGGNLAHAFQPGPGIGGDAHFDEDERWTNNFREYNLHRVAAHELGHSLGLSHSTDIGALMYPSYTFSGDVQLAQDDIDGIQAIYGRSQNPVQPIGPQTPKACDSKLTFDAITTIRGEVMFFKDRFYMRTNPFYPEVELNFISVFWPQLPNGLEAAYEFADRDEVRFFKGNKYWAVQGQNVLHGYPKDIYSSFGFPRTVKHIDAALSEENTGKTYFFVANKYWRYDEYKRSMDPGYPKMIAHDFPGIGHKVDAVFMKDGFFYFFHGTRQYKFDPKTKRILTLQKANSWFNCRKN
The assay can be described thus: Thiopeptolide assay, MMP01. The class given is biochemical.

Assay [2] addresses T3, stromelysin-1 catalytic domain (MMP03) (Homo sapiens, UniProt P08254).
T3 construct: SCD (stromelysin-1 catalytic domain); made in house; host or cells: Escherichia coli
Description: Thiopeptolide assay, stromelysin-1 catalytic domain (SCD, MMP03). The class given is biochemical.

Another assay relates to MMP13. The assay can be described thus: Thiopeptolide assay, MMP13. The note with it: Table 1. The class given is biochemical, human. The method, then: MMP01, MMP07, MMP09, and MMP13 activity was assayed in a method similar to MMP02 and MMP03 (SCD and GCD). MMP01 and MMP09 can be obtained from Washington University School of Medicine, St. Louis, Mo. MMP07 can be obtained in accordance with the known procedure set forth by Ye QZ, Johnson L. L., and Baragi V., "Gene Syntheses and Expression in E. coli for PUMP, a Human Matrix Metalloproteinase" Biochem. and Biophys. […] MMP 13 can be obtained in accordance with the known procedure set forth by Freije J. M. P., et al., "Molecular Cloning and Expression of Collegenase-3, a Novel Human Matrix Metalloproteinase Produced by Breast Carcinomas" J. Bio.
Hydrolysis of the thiopeptolide substrate Ac-Pro-Leu-Gly-thioester-Leu-Leu-Gly-OEt (Bachem) is used as the primary screen to determine IC50 values for MMP inhibitors. A 100 μL reaction contains 1 mM 5,5'-dithiobis(2-nitrobenzoic acid) (DTNB), 100 μM substrate, 0.1% Brij, enzyme, and inhibitor in the appropriate reaction buffer. Activated full-length enzymes are assayed at 5 nM, Stromelysin Catalytic Domain (SCD) at 10 nM, and Gelatinase A Catalytic Domain (GaCD) at 1 nM. Inhibitors are screened from 100 μM to 1 nM. Full-length enzymes are assayed in 50 mM HEPES, 10 mM CaCl2, pH 7.0; SCD in 50 mM MES, 10 mM CaCl2, pH 6.0; and GaCD in 50 mM MOPS, 10 mM CaCl2, 10 μM ZnCl2, pH 7.0.

The next assay has as its system MMP-13CD. The assay can be described thus: Thiopeptolide assay, MMP-13CD. In kind it is biochemical, human. The note with it: Tables 2, 3, 5, 7.
Where [3] appears, read: Table 1, GCD, read-out: IC50 MMP02.
[4] abbreviates: Table 1, SCD, read-out: IC50 MMP03.
The mark [5] stands for this setting: Tables 2, 3, 5, 7, read-out: IC50 MMP-7.
[6] abbreviates: Tables 2, 3, 5, 7, read-out: IC50 MMP-2CD.
The mark [7] stands for this setting: Tables 2, 3, 5, 7, read-out: IC50 MMP1.
The mark [8] stands for this setting: Tables 2, 3, 5, 7, read-out: IC50 MMP 3CD.

Read-outs that look alike come from different tables or passages of the source.

T3 sequence (P08254 100-272 limits assumed): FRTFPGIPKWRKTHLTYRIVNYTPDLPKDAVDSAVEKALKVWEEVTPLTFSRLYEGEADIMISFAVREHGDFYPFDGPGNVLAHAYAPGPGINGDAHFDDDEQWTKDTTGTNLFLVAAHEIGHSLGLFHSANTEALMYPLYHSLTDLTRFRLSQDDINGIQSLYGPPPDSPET

One may read the IC50 as the concentration that gives 50% inhibition. For the compound “2-(Dibenzofuran-2-sulfonylamino)-pentanedioic acid 1-tert-butyl Ester [Example 4]”, the IC50 at MMP07 (Table 1, read-out: IC50 MMP07) came out at 3.7 µM; in assay [1] (setting [3]) it was 0.12 µM; at MMP01 (Table 1, read-out: IC50 MMP01), 91 µM; in assay [2] (setting [4]), 0.46 µM; in the assay with MMP13, 0.35 µM.
The corresponding values for `O=C(CC[C@H](NS(=O)(=O)c1ccc2oc3ccccc3c2c1)C(=O)O)NCCc1ccccc1` [Example 5, 2-(Dibenzofuran-2-sulfonylamino)-4-phenethylcarbamoyl-butyric acid] are 6.55 µM, 0.076 µM, 39 µM, 0.325 µM and 0.28 µM.
The corresponding values for `CCCc1ccc(C(=O)CC(NS(=O)(=O)c2ccc3oc4ccccc4c3c2)C(=O)O)cc1` (centres unmarked) [Example 6] are 87 µM, 2.4 µM, 100 µM, 3.7 µM and 7.1 µM.
The corresponding values for `O=C(O)[C@H](CCc1ccccc1)NS(=O)(=O)c1ccc2sc3ccccc3c2c1` [Example 7, 2-(Dibenzothiophene-2-sulfonylamino)-4phenyl-butyric acid] are 82 µM, 0.78 µM, 100 µM, 1.3 µM and 5.8 µM.
In the case of `O=C(O)[C@H](CCc1ccccc1)NS(=O)(=O)c1ccc2c(c1)oc1ccccc12` [Example 8], the IC50 on MMP07 (Table 1, read-out: IC50 MMP07) was determined as 1.2 µM; in assay [1] (setting [3]), 0.0038 µM; on MMP01 (Table 1, read-out: IC50 MMP01) it was 3.5 µM; in assay [2] (setting [4]) it was 0.013 µM; in the assay with MMP13, 0.032 µM.
Consider `CC(O)CNC(=O)CCC(NS(=O)(=O)c1ccc2oc3ccccc3c2c1)C(=O)O` (centres unmarked) [Example F3, 2-(Dibenzofuran-2-sulfonylamino)-4-(2-hydroxy-propylcarbamoyl)-butyric acid], for which the IC50 was more than 100 µM at MMP07 (setting [5]); 3.9 µM in assay [1] (setting [6]); more than 100 µM on MMP01 (setting [7]); 8.7 µM in assay [2] (setting [8]); 24.1 µM in the assay with MMP-13CD.
In the case of `CCCc1ccc(NC(=O)CCC(NS(=O)(=O)c2ccc3oc4ccccc4c3c2)C(=O)O)cc1` (centres unmarked) [Example F4, 2-(Dibenzofuran-2-sulfonylamino)-4-(4-propyl-phenylcarbamoyl)-butyric acid], the IC50 came out at 42.7 µM on MMP07 (setting [5]); 0.3 µM in assay [1] (setting [6]); 93.7 µM on MMP01 (setting [7]); 0.6 µM in assay [2] (setting [8]); 2.2 µM with MMP-13CD.
For `O=C(CCC(NS(=O)(=O)c1ccc2oc3ccccc3c2c1)C(=O)O)NCC(c1ccccc1)c1ccccc1` (centres unmarked) [Example F5, 2-(Dibenzofuran-2-sulfonylamino)-4-(2,2-diphenyl-ethylcarbamoyl)-butyric acid], the IC50 on MMP07 (setting [5]) was 40.9 µM; in assay [1] (setting [6]) it was 0.7 µM; at MMP01 (setting [7]), more than 100 µM; in assay [2] (setting [8]), 1 µM; with MMP-13CD it was 0.7 µM.
With `O=C(CCC(NS(=O)(=O)c1ccc2oc3ccccc3c2c1)C(=O)O)NC1CC1` (centres unmarked) [Example F6, 4-Cyclopropylcarbamoyl-2-(dibenzofuran-2-sulfonylamino)-butyric acid], the IC50 came out at 14.8 µM on MMP07 (setting [5]); 0.2 µM in assay [1] (setting [6]); 68.7 µM on MMP01 (setting [7]); 0.2 µM in assay [2] (setting [8]); 0.3 µM in the assay with MMP-13CD.
As for `O=C(CCC(NS(=O)(=O)c1ccc2oc3ccccc3c2c1)C(=O)O)NCc1cccs1` (centres unmarked) [Example F7, 2-(Dibenzofuran-2-sulfonylamino)-4-[(thiophen-2-ylmethyl)-carbamoyl]-butyric acid], the IC50 at MMP07 (setting [5]) worked out at 12.3 µM; in assay [1] (setting [6]), 0.3 µM; on MMP01 (setting [7]), 40.9 µM; in assay [2] (setting [8]) it was 0.4 µM; in the assay on MMP-13CD, 0.3 µM.
Take `CC(C)CC(C)NC(=O)CCC(NS(=O)(=O)c1ccc2oc3ccccc3c2c1)C(=O)O` (centres unmarked) [Example F8, 2-(Dibenzofuran-2-sulfonylamino)-4-(1,3-dimethyl-butylcarbamoyl)-butyric acid]: the IC50 on MMP07 (setting [5]) amounted to 7 µM; in assay [1] (setting [6]) it was 0.1 µM; at MMP01 (setting [7]), 61.3 µM; in assay [2] (setting [8]), 0.4 µM; with MMP-13CD it was 0.2 µM.
The corresponding values for `CN(C)CCNC(=O)CCC(NS(=O)(=O)c1ccc2oc3ccccc3c2c1)C(=O)O` (centres unmarked) [Example F9, 2-(Dibenzofuran-2-sulfonylamino)-4-(2-dimethylamino-ethylcarbamoyl)-butyricacid] are more than 100 µM, 9.8 µM, more than 100 µM, 22.6 µM and 39.3 µM.
`O=C(CCC(NS(=O)(=O)c1ccc2oc3ccccc3c2c1)C(=O)O)NCc1ccccc1` (centres unmarked) [Example F10, 4-Benzylcarbamoyl-2-(dibenzofuran-2-sulfonylamino)-butyric acid]: the IC50 on MMP07 (setting [5]) was 74.1 µM; in assay [1] (setting [6]), 2.1 µM; on MMP01 (setting [7]), more than 100 µM; in assay [2] (setting [8]), 2.7 µM; in the assay on MMP-13CD, 1.9 µM.
The corresponding values for `O=C(CCC(NS(=O)(=O)c1ccc2oc3ccccc3c2c1)C(=O)O)NCCc1cccs1` (centres unmarked) [Example F11, 2-(Dibenzofuran-2-sulfonylamino)-4-(2-thiophen-2-yl-ethylcarbamoyl)-butyricacid] are more than 100 µM, 2.1 µM, more than 100 µM, 2.7 µM and 3.6 µM.
Turning to `O=C(CCC(NS(=O)(=O)c1ccc2oc3ccccc3c2c1)C(=O)O)Nc1ccc(Cl)cc1` (centres unmarked) [Example F12, 4-(4-Chloro-phenylcarbamoyl)-2-(dibenzofuran-2-sulfonylamino)-butyric acid], the IC50 was 32.4 µM on MMP07 (setting [5]); 0.3 µM in assay [1] (setting [6]); more than 100 µM on MMP01 (setting [7]); 0.7 µM in assay [2] (setting [8]); 3.7 µM in the assay on MMP-13CD.
Regarding `O=C(CCC(NS(=O)(=O)c1ccc2oc3ccccc3c2c1)C(=O)O)NCCCCc1ccccc1` (centres unmarked) [Example F13, 2-(Dibenzofuran-2-sulfonylamino)-4-(4-phenyl-butylcarbamoyl)-butyric acid], the IC50 at MMP07 (setting [5]) is more than 100 µM; in assay [1] (setting [6]) it was 9.3 µM; on MMP01 (setting [7]), more than 100 µM; in assay [2] (setting [8]) it was 26.5 µM; in the assay on MMP-13CD it was 24.1 µM.
For the compound `Cn1cccc1CCNC(=O)CCC(NS(=O)(=O)c1ccc2oc3ccccc3c2c1)C(=O)O` (centres unmarked) [Example F14, 2-(Dibenzofuran-2-sulfonylamino)-4-[2-(1-methyl-1H-pyrrol-2-yl)-ethylcarbamoyl]-butyric acid], the IC50 on MMP07 (setting [5]) was 57.6 µM; in assay [1] (setting [6]), 0.4 µM; at MMP01 (setting [7]), more than 100 µM; in assay [2] (setting [8]), 1.4 µM; in the assay with MMP-13CD it was 2.4 µM.
The corresponding values for `COc1ccccc1CNC(=O)CCC(NS(=O)(=O)c1ccc2oc3ccccc3c2c1)C(=O)O` (centres unmarked) [Example F15, 2-(Dibenzofuran-2-sulfonylamino)-4-(2-methoxy-benzylcarbamoyl)-butyric acid] are 36.9 µM, 0.3 µM, more than 100 µM, 1.8 µM and 0.6 µM.
The corresponding values for `O=C(CCC(NS(=O)(=O)c1ccc2oc3ccccc3c2c1)C(=O)O)NCc1cccc2ccccc12` (centres unmarked) [Example F16] are 22.1 µM, 0.4 µM, more than 100 µM, 1.1 µM and 1 µM.
